Laboratory results reported in patent publication US20250296971A1, “GASTRIC INHIBITORY PEPTIDE RECEPTOR LIGANDS” (priority 2021, published 2025).
*1 amine or outer side, *2 acyl side, *3 side chain or, on linkers, in order; H or OH if unused. Where a SMILES comes first, the peptide text is derived from it. Bridges are numbered along the chain shown (N, C = ends). [ ]: non-standard residue; d: D form. The star is where a group is joined. X5 = NC(=O)[C@H](CCCCNC(=O)CN1CCN(CC(=O)O)CCN(CC(=O)O)CCN(CC(=O)O)CC1)NC(=O)CCC(=O)NCCCOCCOCCOCCCN*; X3 = O=C(O)CN1CCN(CC(=O)O)CCN(CC(=O)NCCCOCCOCCOCCCN*)CCN(CC(=O)O)CC1; NH(1-deoxy-D-glucityl) = OC[C@@H](O)[C@@H](O)[C@H](O)[C@@H](O)CN*; DOTA = O=C(O)CN1CCN(CC(=O)O)CCN(CC(=O)*)CCN(CC(=O)O)CC1; Trp(5-Cl) = N[C@@H](Cc1c[nH]c2ccc(Cl)cc12)C(=O)O; Pyridine(2,6-diCH2) = c1cc(C[*:1])nc(C[*:2])c1; Pro(4R-NH2) = N[C@H]1CN[C@H](C(=O)O)C1; 1Nal = N[C@@H](Cc1cccc2ccccc12)C(=O)O; mXylylene = c1cc(C[*:1])cc(C[*:2])c1; Glutaryl = O=C(CCCC(=O)[*:2])[*:1]; X7 = c1cc(CSCCN[*:2])cc(C[*:1])c1; Hyp = O=C(O)[C@@H]1C[C@@H](O)CN1; X1 = O=C(CN1CCC(N[*:1])CC1)[*:2]; Suc = O=C(CCC(=O)[*:2])[*:1]; NMeC = CN[C@@H](CS)C(=O)O; Nle = CCCC[C@H](N)C(=O)O; Api = NC1(C(=O)O)CCNCC1; Thp = NC1(C(=O)O)CCOCC1; Aib = CC(C)(N)C(=O)O; Bn = c1ccc(C*)cc1

The compounds below were run against T1, GIPR (CHO-K1-hGIPR cells) (Homo sapiens, UniProt P48546) (assay: FACS binding assay). Settings: competition with 20 nM GIP-057, 4° C. for 1 hour, read-out: pIC50 Category (converted).
T1 construct: host or cells: CHO-K1
T1 sequence (P48546 22-466): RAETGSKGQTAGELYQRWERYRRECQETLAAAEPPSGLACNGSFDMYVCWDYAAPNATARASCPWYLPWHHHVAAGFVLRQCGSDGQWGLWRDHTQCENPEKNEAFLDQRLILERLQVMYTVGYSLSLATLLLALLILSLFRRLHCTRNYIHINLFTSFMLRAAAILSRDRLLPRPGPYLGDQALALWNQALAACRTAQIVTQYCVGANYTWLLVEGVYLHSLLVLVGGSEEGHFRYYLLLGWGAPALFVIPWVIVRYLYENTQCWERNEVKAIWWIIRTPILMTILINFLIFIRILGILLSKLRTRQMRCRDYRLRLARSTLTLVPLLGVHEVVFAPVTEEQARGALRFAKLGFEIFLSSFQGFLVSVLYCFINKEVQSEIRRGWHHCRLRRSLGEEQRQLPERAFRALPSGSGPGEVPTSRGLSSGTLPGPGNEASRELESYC
How it was run: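 Read-out: flow cytometric median fluorescence intensity, APC/Cy5 channel, plotted vs peptide conc.; 4PL fit → EC50/pEC50 or IC50/pIC50. Cells: CHO-K1-hGIPR, Accutase-detached, 500.000/mL in PBS + 1% FCS. Detection: APC-streptavidin 1 μg/mL, 30 min, on ice.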
For `CC[C@H](C)[C@H](NC(=O)[C@H](CC(C)C)NC(=O)[C@H](C)NC(=O)[C@H](CSC)NC(=O)[C@H](CC(C)C)NC(=O)[C@H](CCC(=O)O)NC(=O)[C@@H]1CCCN1C(=O)[C@H](Cc1c[nH]c2ccccc12)NC(=O)[C@H](Cc1c[nH]c2ccccc12)NC(=O)[C@H](CC(=O)O)NC(=O)[C@H](Cc1ccc(O)cc1)NC(=O)[C@@H](N)CCSC)C(=O)N[C@@H](CSCc1ccccc1)C(N)=O` [GIP-369] (H-MYDWWPELC(Me)ALIC(Bn)-NH2), the IC50 was > 1000 nM.
In the case of `CCCC[C@H](NC(=O)[C@H](CCC(=O)O)NC(=O)[C@@H]1CCCN1C(=O)[C@H](Cc1cccc2ccccc12)NC(=O)[C@H](Cc1c[nH]c2ccccc12)NC(=O)[C@H](CC(=O)O)NC(C)=O)C(=O)N[C@H]1CSCc2cccc(c2)CSC[C@@H](C(N)=O)NC(=O)[C@H]([C@@H](C)CC)NC(=O)[C@H](CC(C)C)NC(=O)C(C)(C)NC1=O` [GIP-346, Ac-Asp-Trp-1Ni-Pro-Glu-Nle-[Cys(3MeBn)-Aib-Leu-Ile-Cys]-NH2] (Ac-DW[1Nal]PE[Nle]C[Aib]LIC-NH2; linker 7-11 via mXylylene), the IC50 is reported as > 1000 nM.
For `CC[C@H](C)[C@@H]1NC(=O)[C@H](CC(C)C)NC(=O)C(C)(C)NC(=O)[C@@H](NC(=O)[C@H](CC(C)C)NC(=O)[C@H](CCC(=O)O)NC(=O)[C@@H]2CCCN2C(=O)[C@H](Cc2c[nH]c3ccccc23)NC(=O)[C@H](Cc2c[nH]c3ccccc23)NC(=O)[C@H](CC(=O)O)NC(C)=O)CSCc2cccc(c2)CSC[C@@H](C(=O)NCCCOCCOCCOCCCNC(=O)CCC(=O)N[C@@H](CCCCNC(=O)CN2CCN(CC(=O)O)CCN(CC(=O)O)CCN(CC(=O)O)CC2)C(N)=O)N(C)C1=O` [GIP-292, Ac-Asp-Trp-Trp-Pro-Glu-Leu-[Cys(3MeBn)-Aib-Leu-Ile-Nmc]-Ttds-Lys(DOTA)-NH2] (Ac-DWWPELC[Aib]LI[NMeC]-X5; linker 7-11 via mXylylene), the IC50 was > 1000 nM.
Compound `CC(C)C[C@@H]1NC(=O)C2(CCOCC2)NC(=O)[C@@H](NC(=O)[C@@H](CC(C)C)NC(=O)[C@H](CCC(=O)O)NC(=O)[C@@H]2C[C@@H](O)CN2C(=O)[C@H](Cc2c[nH]c3ccc(Cl)cc23)NC(=O)[C@H](Cc2c[nH]c3ccccc23)NC(=O)[C@H](CC(=O)O)NC(=O)CCC(=O)NCCCOCCOCCOCCCNC(=O)CN2CCN(CC(=O)O)CCN(CC(=O)O)CCN(CC(=O)O)CC2)CSCc2cccc(n2)CSC[C@@H](C(N)=O)NC(=O)[C@H](Cc2ccccc2)NC1=O` [GIP-388, DOTA-Ttds-Asp-Trp-5Clw-Hyp-Glu-leu-[Cys(2Lut)-Thp-Leu-Phe-Cys]-NH2] ({X3-Suc}-DW[Trp(5-Cl)][Hyp]E[dL]C[Thp]LFC-NH2; linker 7-11 via Pyridine(2,6-diCH2)) has an IC50 of 10 to 79.4 nM.
`CC[C@H](C)[C@@H]1NC(=O)[C@H](CC(C)C)NC(=O)[C@@H](NC(=O)[C@H](CCC(=O)O)NC(=O)[C@@H](CC(C)C)NC(=O)[C@H](Cc2c[nH]c3ccc(Cl)cc23)NC(=O)[C@@H]2CCCN2C(=O)[C@H](CC(=O)O)NC(=O)[C@H](Cc2c[nH]c3ccccc23)NC(=O)CCC(=O)NCCCOCCOCCOCCCNC(=O)CN2CCN(CC(=O)O)CCN(CC(=O)O)CCN(CC(=O)O)CC2)CSCc2cccc(c2)CSCCNC(=O)C(C)(C)NC1=O` [GIP-304, DOTA-Ttds-Trp-Asp-Pro-5Clw-leu-Glu-[Cys(3MeBn)-Leu-Ile-Aib-AET]] ({X3-Suc}-WDP[Trp(5-Cl)][dL]ECLI[Aib]; linker 7-C via X7) was tested, and the IC50 was > 1000 nM.

Same assay, conditions: competition with 20 nM GIP-057, 4° C., 1 hour, read-out: pIC50 Category (converted)
For `CC[C@H](C)[C@@H]1NC(=O)[C@H](CC(C)C)NC(=O)C2(CCN(C(=O)CN3CCN(CC(=O)O)CCN(CC(=O)O)CCN(CC(=O)O)CC3)CC2)NC(=O)[C@@H](NC(=O)[C@@H](CC(C)C)NC(=O)[C@H](CCC(=O)O)NC(=O)[C@@H]2C[C@@H](N)CN2C(=O)[C@H](Cc2c[nH]c3ccc(Cl)cc23)NC(=O)[C@H](Cc2c[nH]c3ccccc23)NC(=O)[C@H](CC(=O)O)NC(=O)CCCC(=O)NC[C@H](O)[C@@H](O)[C@H](O)[C@H](O)CO)CSCc2cccc(n2)CSC[C@H](C(=O)NC2CCN(CC(=O)N[C@H](CCC(=O)NC[C@H](O)[C@@H](O)[C@H](O)[C@H](O)CO)C(N)=O)CC2)NC1=O` [GIP-038, AGLU-Glutar-Asp-Trp-5Clw-Tap-Glu-leu-[Cys(2Lut)-Apc(DOTA)-Leu-Ile-cys]-APAc-glu(AGLU)-NH2] ({NH(1-deoxy-D-glucityl)-Glutaryl}-DW[Trp(5-Cl)][Pro(4R-NH2)]E[dL]C[Api](DOTA)LI[dC][X1][dE](NH(1-deoxy-D-glucityl))-NH2; linker 7-11 via Pyridine(2,6-diCH2)), the IC50 was < 10 nM.
